Laboratory results: patent US12064427B2, “Pharmaceutical compositions comprising (S)-4-(4-(4-(((2-(2,6-dioxopiperidin-3-yl)-1-oxoisoindolin-4-yl)oxy)methyl)benzyl)piperazin-1-yl)-3-fluorobenzonitrile and methods of using the same” (Celgene Corporation, priority 2019, dated 2024)

Tests used:
[1] = system: NCI-H929; experiment: Cell proliferation assay (CellTitre-Glo, 120 h); settings: Homo sapiens, NCI-H929, 120 h, read-out: NCI-H929 120 h IC50
Method: (§2) All cell lines were kept in log phase, and cell density and viability were monitored by trypan blue exclusion using the Vi-cell XR cell viability analyzer (Beckman Coulter, Brea, CA).
(§3) A 10-point dose response starting at 10 μM with a 1:3 dilution was printed in duplicate by acoustic dispense using the EDC ATS-100 platform. Alternatively, the 10-point dose response starting at 10 μM with a 1:10 dilution, or starting at 100 nM with a 1:3 dilutions were used.
(§4) Hematological cell lines were dispensed into compound plates by a Multidrop Combi Reagent Dispenser (Thermo Scientific, Waltham, MA) at a concentration of 0.1×10^6 cells per mL in a 50 μL total volume. At 120 h, 25 μL per well of CTG was dispensed by a Multidrop Combi Reagent Dispenser and adenosine triphosphate (ATP) release by viable cells was measured as relative luminescence units after 30 minutes using the Envision platform.
(§5) Proliferation was assessed using the CellTitre-Glo® assay.

[2] = target: T1, dopamine D2S receptor (Homo sapiens, UniProt P14416); experiment: Dopamine D2S receptor binding at 10 μM (transfected HEK-293 membranes); settings: inhibition of control radioligand binding
T1 construct: host or cells: HEK-293
Method: (§1) α1 Adrenergic and Dopamine D2 Receptors. Methods: Binding and functional assays for al adrenergic and dopamine D2 receptors were performed by Eurofins Cerep according to their methods.
Dopamine D2 Receptor. Binding at 10 μM. The binding assay evaluated the affinity of test articles for the dopamine D2 receptor in transfected human embryonic kidney (HEK)-293 cells. For determining the binding in the D2S receptor assay, test article was incubated with 0.3 nM [^3H] methylspiperone or 1 nM [^3H] 7-hydroxy-2-N,N-dipropylaminotetralin (7-OH-DPAT). [^3H] Methylspiperone at 0.3 nM also was used as control ligand in the D2L binding assay. Cell membrane homogenates were incubated in duplicate at room temperature for 60 minutes with ligand in the absence or presence of test articles at 10 μM. After the incubation period, samples were filtered through glass fiber filters, the filters dried and then counted for radioactivity using a scintillation counter. Results are expressed as mean percent inhibition of control radioligand binding.

[3] = system: NCI-H929-1051; experiment: Cell proliferation assay (CellTitre-Glo, 120 h); settings: Homo sapiens, read-out: NCI-H929.1051 120 h IC50
Method: as §2, §3, §4, §5

[4] = system: OPM2; experiment: Cell proliferation assay (CellTitre-Glo, 120 h); settings: Homo sapiens, OPM-2, 120 h, read-out: OPM-2 120 h IC50
Method: as §2, §3, §4, §5

[5] = system: OPM2-P10; experiment: Cell proliferation assay (CellTitre-Glo, 120 h); settings: Homo sapiens, read-out: OPM-2.P10 120 h IC50
Method: as §2, §3, §4, §5

[6] = system: MM cell lines; experiment: Cell proliferation assay (CellTitre-Glo, 120 h), four lines together; settings: Homo sapiens, read-out: antiproliferative IC50 values
Method: as §2, §3, §4, §5

[7] = Two-stage dissolution (precipitation risk) of 2 mg BIC; format: physicochemical; settings: based on two-stage dissolution findings
Method: The precipitation risk of prototype BIC formulations were studied by a two-stage method (Stage 1 under sink condition and Stage 2 under non-sink condition) for high strength (2 mg).
A two-stage dissolution study was carried out on prototype formulations, wherein the dissolution medium for Stage 1 was 0.01N HCl. […] Based on the two-stage dissolution findings the precipitation risk is considered low for Compound 1.

[8] = system: α1 adrenergic receptor; experiment: α1 adrenergic receptor binding at 10 μM ([3H]prazosin, cerebral cortex membranes); set-up: species or system rat; settings: inhibition of control radioligand binding
Method: as §1
α1 Adrenergic Receptor. Binding at 10 μM. The binding assay evaluated the affinity of test article for the non-selective al adrenergic receptor in rat cerebral cortex. Membrane homogenates of cerebral cortex were incubated in duplicate for 60 minutes at room temperature with 0.25 nM [^3H]prazosin in the absence or presence of test articles at 10 μM. After the incubation period, samples were filtered through glass fiber filters, the filters dried and then counted for radioactivity using a scintillation counter. Results are expressed as mean percent inhibition of control radioligand binding.

[9] = Binary drug-excipient compatibility study; settings: binary mixture with Compound 1, open dish, 50° C./75% RH, 3 and 6 weeks vs 5° C. control
Method: A binary drug-excipient compatibility study was conducted to identify suitable excipients for capsule formulation. These binary mixtures were studied in open dish and subjected to 5° C. (control) and 50° C./75% RH conditions for 3 and 6 weeks respectively. Selective samples have been tested for chemical (impurities/degradants) and racemization (loss of chiral purity).

[10] = Water activity testing; format: physicochemical
Description: Water activity is a measure of how tightly bound the water is within a substance. To measure water activity, a sample is placed in a sealed vessel which is allowed to reach equilibrium. The final relative humidity (RH) in the vessel is reported as a fraction called “Aw”. Pure water has an Aw of 1.00. […] HygroLab 3 Bench Top Indicator was used to determine water activity testing. Before testing the samples, the equipment is calibrated at different relative humidity levels using RH standards (0% RH, 35% RH, and 80% RH) and at different temperatures to ensure accuracy of the probes. A known amount of sample is sealed inside the sample cell by twisting the cap in downward direction. The starting temperature is recorded before beginning the test. When the change in temperature before and after the test is not more than 0.5° C. record Aw.

[11] = acidifiers evaluated; cited from earlier work

T1 sequence (P14416 1-414 isoform P14416-2): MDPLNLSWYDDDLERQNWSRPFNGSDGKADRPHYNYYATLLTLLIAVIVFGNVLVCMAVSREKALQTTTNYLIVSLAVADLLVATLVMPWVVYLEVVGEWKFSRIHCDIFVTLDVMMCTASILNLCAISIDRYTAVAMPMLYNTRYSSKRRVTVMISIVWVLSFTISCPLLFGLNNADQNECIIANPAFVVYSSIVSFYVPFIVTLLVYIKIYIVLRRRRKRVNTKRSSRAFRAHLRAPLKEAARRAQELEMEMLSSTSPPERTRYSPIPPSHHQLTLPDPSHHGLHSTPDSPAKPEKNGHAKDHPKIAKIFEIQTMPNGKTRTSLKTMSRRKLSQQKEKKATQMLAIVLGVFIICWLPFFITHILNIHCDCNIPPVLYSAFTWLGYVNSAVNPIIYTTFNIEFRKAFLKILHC

## N#Cc1ccc(N2CCN(Cc3ccc(COc4cccc5c4CN([C@H]4CCC(=O)NC4=O)C5=O)cc3)CC2)c(F)c1 [Compound 1, (S)-4-(4-(4-(((2-(2,6-dioxopiperidin-3-yl)-1-oxoisoindolin-4-yl)oxy)methyl)benzyl)piperazin-1-yl)-3-fluorobenzonitrile]
[1]
  IC50: 0.07 nM
[2]
  Dopamine D2S % Inh. (@10 μM): 55/52
[3]
  IC50: 1 nM
[4]
  IC50: 0.07 nM
[5]
  IC50: 4.3 nM
[6]
  IC50: 0.07 to 4.3 nM
[7]
  precipitation risk: low

## O=C1CCC(N2Cc3c(OCc4ccc(CN5CCN(c6ccc(F)cc6F)CC5)cc4)cccc3C2=O)C(=O)N1 (racemic) [Compound A, 3-(4-((4-((4-(2,4-difluorophenyl)piperazin-1-yl)methyl)benzyl)oxy)-1-oxoisoindolin-2-yl)piperidine-2,6-dione]
[8]
  Adrenergic α1 % Inh. (@10 μM): 102%

## CCCCCCCCCCCCCCCCCC(=O)O [Stearic Acid]
[9]
  compatibility of excipient with the drug substance (chemical degradation, chiral purity): chemically compatible

## CCCCCCCCCCCCOS(=O)(=O)[O-].[Na+] [sodium lauryl sulfate (SLS), sodium lauryl sulfate]
[9]
  compatibility of excipient with the drug substance (chemical degradation, chiral purity): loss of chiral purity and increase in chemical degradation chiefly by hydrolysis

## O=C(O)/C=C/C(=O)O [fumaric acid]
[9]
  compatibility of excipient with the drug substance (chemical degradation, chiral purity): more compatible acidifier

## OC[C@@H](O)[C@@H](O)[C@H](O)[C@H](O)CO [Mannitol]
[9]
  compatibility of excipient with the drug substance (chemical degradation, chiral purity): compatible, with some hydrolytic chemical degradation

## OC[C@H]1O[C@@H](O[C@H]2[C@H](O)[C@@H](O)C(O)O[C@@H]2CO)[C@H](O)[C@@H](O)[C@H]1O (stereo partly shown) [Lactose]
[9]
  compatibility of excipient with the drug substance (chemical degradation, chiral purity): compatible with little decrease in chiral purity

## N#Cc1ccc(N2CCN(Cc3ccc(COc4cccc5c4CN([C@H]4CCC(=O)NC4=O)C5=O)cc3)CC2)c(F)c1 [Form K of Compound 1, (S)-4-(4-(4-(((2-(2,6-dioxopiperidin-3-yl)-1-oxoisoindolin-4-yl)oxy)methyl)benzyl)piperazin-1-yl)-3-fluorobenzonitrile]
[10]
  RH at which Form K converts to an anhydrous form: < 20%

## O=C(O)CCC(=O)O [succinic acid]
[9]
  compatibility of excipient with the drug substance (chemical degradation, chiral purity): chemically incompatible
[11]
  pKa: 4.18
